Experimental data taken from PubChem BioAssay AID602426 (Sanford-Burnham Center for Chemical Genomics, 2012).

Biological target: Neurotensin receptor type 1 (Homo sapiens) (UniProt P30989)
Assay: neurotensin receptor 1 activation by analogs – imaging, image-based, set 4, SAR follow-up (AID 602426)
Details: NTR1-U2OS beta-arrestin-GFP spot imaging

Chain of Neurotensin receptor type 1 (Homo sapiens) (P30989 whole entry, looked up): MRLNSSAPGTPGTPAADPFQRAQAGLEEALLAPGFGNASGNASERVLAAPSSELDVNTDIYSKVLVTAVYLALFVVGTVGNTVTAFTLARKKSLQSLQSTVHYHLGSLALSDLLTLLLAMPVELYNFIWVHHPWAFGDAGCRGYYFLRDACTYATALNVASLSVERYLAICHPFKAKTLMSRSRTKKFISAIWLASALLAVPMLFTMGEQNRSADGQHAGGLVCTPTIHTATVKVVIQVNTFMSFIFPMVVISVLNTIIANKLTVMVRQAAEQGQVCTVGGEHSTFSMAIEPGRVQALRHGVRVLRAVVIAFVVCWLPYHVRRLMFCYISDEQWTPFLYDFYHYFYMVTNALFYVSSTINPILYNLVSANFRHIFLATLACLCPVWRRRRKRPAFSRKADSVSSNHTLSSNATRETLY

COc1cccc(OC)c1-c1cc(C(=O)N[C@@H](CC(C)C)C(=O)O)nn1-c1ccnc2cc(Cl)ccc12
EC50: 925 nM
